In patent US10273242B2, “Compound inhibiting activities of BTK and/or JAK3 kinases” (BEIJING HANMI PHARMACEUTICAL CO., LTD., priority 2013, dated 2019):

Key:
JAK3 kinase = molecular target: T1, JAK3 kinase (Homo sapiens, UniProt P52333); test: JAK3 kinase activity inhibition assay (ADP-Glo); type: biochemical; conditions: ATP 10 μM
T1 construct: purchased SignalChem J03-11G
Method: The JAK3 kinase (purchased from SignalChem, No.: J03-11G) was diluted with reaction buffer (40 mM Tris-HCl, pH 7.5; 20 mM MgCl2, 0.1 mg/ml BSA; 1 mM DTT) to 2 times of the final concentration (which is 0.5 ng/μL) and added with 5 μL/well to a 96-well plate. The compounds of the present invention were serial diluted with deionized water to four times (i.e., 40 μM, 4 μM, 0.4 μM, 80 nM, 16 nM, 3.2 nM, respectively) of the final concentrations (10 μM, 1 μM, 0.1 μM, 20 nM, 4 nM, 0.8 nM, respectively), and added with 2.5 μL/well to the test wells of the 96-well plate. After incubation at 25° C. for 10 minutes, 10 μM of ATP (purchased from Promega, No.: V9102) and 0.2 μg/μL of Poly E4Y1 (purchased from Sigma, No.: P0275-25MG) were added at 2.5 μL/well and reacted at 25° C. for 60 minutes. After the reaction was completed, 10 μL of the ADP-Glo reagent (ADP-Glo™ kinase assay kit, purchased from Promega, No.: V9102) was added to each well and reacted at 25° C. for 40 minutes. Then 20 μL of the ADP-Glo kinase detection reagent was added to each well and reacted at 25° C. for 30 minutes. The kinase activity was detected by luminescence using the ADP-Glo kinase assay kit according to the manufacture's instruction, and IC50 values of the compounds of the present invention were calculated.

BTK kinase = molecular target: T2, BTK kinase (Homo sapiens, UniProt Q06187); test: BTK kinase activity inhibition assay (ADP-Glo); type: biochemical; conditions: ATP 50 μM
T2 construct: purchased Invitrogen PV3363
Method: The BTK kinase (purchased from Invitrogen, No.: PV3363) was diluted with reaction buffer (40 mM Tris-HCl, pH 7.5; 20 mM MgCl2, 0.1 mg/ml BSA; 1 mM DTT; 2 mM MnCl2) to 2 times of the final concentration (which is 1.1 ng/μL) and added with 5 μL/well to a 96-well plate. The compounds of the present invention were serial diluted with deionized water to four times (i.e., 40 μM, 4 μM, 0.4 μM, 80 nM, 16 nM, 3.2 nM, respectively) of the final concentrations (10 μM, 1 μM, 0.1 μM, 20 nM, 4 nM, 0.8 nM, respectively), and added at 2.5 μL/well to the test wells of the 96-well plate. After incubation at 25° C. for 10 minutes, ATP (50 μM) (purchased from Promega, No.: V9102) and 0.2 μg/μL of Poly E4Y1 (purchased from Sigma, No.: P0275-25MG) were added with 2.5 μL/well and incubated at 25° C. for 120 minutes. After the reaction was completed, 10 μL of the ADP-Glo reagent (ADP-Glo™ kinase assay kit, purchased from Promega, No.: V9102) was added to each well, and reacted at 25° C. for 40 minutes. Then 20 μL of the ADP-Glo kinase detection reagent was added to each well and reacted at 25° C. for 30 minutes. The kinase activity was detected by luminescence using the ADP-Glo kinase assay kit according to the manufacture's instruction, and IC50 values of the compounds of the present invention were calculated.

CTLL-2 cells = test: IL-2 induced CTLL-2 cell proliferation assay (CCK-8); type: cell-based; conditions: Mus musculus, IL-2 induced proliferation, 24 hours
Method: The compounds of the present invention were serial diluted with RPMI-1640 complete medium (purchased from Gibco, No.: 22440) to three times (i.e., 3 μM, 0.6 μM, 120 nM, 24 nM, 4.8 nM, 0.96 nM, respectively) of the final concentrations (1 μM, 0.2 μM, 40 nM, 8 nM, 1.6 nM, 0.32 nM, respectively), and added at 50 μL/well to the test wells of a 96-well plate. Control wells with IL-2 (referred to as IL-2^+) (IL-2 was purchased from R & D, No.: 402-ML-020/CF) and without IL-2 (referred to as IL-2^−) (with addition of 50 μL of the medium). CTLL-2 cells (purchased from ATCC, No.: TIB-214) at the logarithmic growth phase were rinsed with PBS buffer (pH 7.2), then resuspended in RPMI-1640 complete medium without IL-2, and seeded at 50000 cells/50 μL/well in the 96-well plate. The plate was placed at 37° C., 5% CO2 and pre-incubated for 1 hour. Then, to the test wells and the IL-2^+ control well RPMI-1640 complete medium containing IL-2 (50 μL/well) was added, while to the IL-2^− control well RPMI-1640 complete medium without IL-2 (50 μL/well) was added. The cells were stimulated for 24 hours at 37° C., 5% CO2. After this, the 96-well plate was taken out from the incubator. […] Absorption was determined at 450 nm of wavelength, and IC50 values of the compounds of the present invention were thereby calculated.

T1 sequence (P52333 781-1124 limits assumed): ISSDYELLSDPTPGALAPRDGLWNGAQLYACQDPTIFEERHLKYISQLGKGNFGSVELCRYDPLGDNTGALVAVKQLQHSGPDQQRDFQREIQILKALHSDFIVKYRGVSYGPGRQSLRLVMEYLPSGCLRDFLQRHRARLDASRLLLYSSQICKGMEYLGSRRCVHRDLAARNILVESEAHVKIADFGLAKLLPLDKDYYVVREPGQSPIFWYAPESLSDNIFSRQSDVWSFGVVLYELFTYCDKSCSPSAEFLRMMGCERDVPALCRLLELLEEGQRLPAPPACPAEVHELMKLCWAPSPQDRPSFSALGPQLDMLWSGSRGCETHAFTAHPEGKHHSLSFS
T2 sequence (Q06187 whole entry): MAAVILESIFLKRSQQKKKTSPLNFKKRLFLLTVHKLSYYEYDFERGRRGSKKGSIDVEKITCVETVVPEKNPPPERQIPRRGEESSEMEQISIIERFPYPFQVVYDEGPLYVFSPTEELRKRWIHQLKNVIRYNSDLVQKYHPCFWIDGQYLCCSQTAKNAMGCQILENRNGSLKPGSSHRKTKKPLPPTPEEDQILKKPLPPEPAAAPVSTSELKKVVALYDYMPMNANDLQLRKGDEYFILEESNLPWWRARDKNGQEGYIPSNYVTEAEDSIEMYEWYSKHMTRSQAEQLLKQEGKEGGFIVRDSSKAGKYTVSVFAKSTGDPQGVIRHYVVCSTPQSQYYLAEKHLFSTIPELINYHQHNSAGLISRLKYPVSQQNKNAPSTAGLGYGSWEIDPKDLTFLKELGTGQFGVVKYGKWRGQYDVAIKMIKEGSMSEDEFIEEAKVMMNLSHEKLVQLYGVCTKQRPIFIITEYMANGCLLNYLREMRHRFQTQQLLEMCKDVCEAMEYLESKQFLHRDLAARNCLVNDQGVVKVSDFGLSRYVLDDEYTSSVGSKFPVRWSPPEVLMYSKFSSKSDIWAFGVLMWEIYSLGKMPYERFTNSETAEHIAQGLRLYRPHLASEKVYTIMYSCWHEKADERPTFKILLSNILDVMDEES

C=CC(=O)N1CC(CNc2nc(Nc3cnn(C(C)C)c3)nc3ccsc23)C1 [Example 108]
IC50 (JAK3 kinase): ≤ 10 nM
IC50 (BTK kinase): ≤ 50 nM

C=CC(=O)N1CC(CNc2nc(Nc3cnn(CCOC)c3)nc3ccsc23)C1 [Example 115]
IC50 (JAK3 kinase): 10 to 100 nM
IC50 (BTK kinase): ≤ 50 nM

C=CC(=O)N1CC[C@@H](Nc2nc(Nc3cc(C)ns3)nc3sccc23)C1 [Example 102]
IC50 (JAK3 kinase): 10 to 100 nM
IC50 (BTK kinase): ≤ 50 nM

C=CC(=O)N1CC[C@@H](Nc2nc(Nc3cnn(CCN(C)C)c3)nc3ccsc23)C1 [Example 124]
IC50 (JAK3 kinase): 10 to 100 nM
IC50 (BTK kinase): ≤ 50 nM

C=CC(=O)N1CC(CNc2nc(Nc3cc(C)[nH]n3)nc3ccsc23)C1 [Example 65]
IC50 (JAK3 kinase): 10 to 100 nM
IC50 (BTK kinase): ≤ 50 nM

C=CC(=O)N1CCC[C@@H](Nc2nc(Nc3cc(C)ns3)nc3sccc23)C1 [Example 104]
IC50 (JAK3 kinase): 10 to 100 nM
IC50 (BTK kinase): ≤ 50 nM

C=CC(=O)N1CCC[C@@H](Nc2nc(Nc3cnn(C4CCCC4)c3)nc3ccsc23)C1 [Example 130]
IC50 (JAK3 kinase): 10 to 100 nM
IC50 (BTK kinase): ≤ 50 nM

C=CC(=O)N1CC[C@@H](Nc2nc(Nc3cnn(CCOC)c3)nc3ccsc23)C1 [Example 122]
IC50 (JAK3 kinase): ≤ 10 nM
IC50 (BTK kinase): ≤ 50 nM

C=CC(=O)N1CCC[C@@H](Nc2nc(Nc3cccs3)nc3ccsc23)C1 [Example 84]
IC50 (JAK3 kinase): 10 to 100 nM
IC50 (BTK kinase): ≤ 50 nM

C=CC(=O)N1CC[C@@H](Nc2nc(Nc3cnoc3)nc3ccsc23)C1 [Example 78]
IC50 (JAK3 kinase): 10 to 100 nM
IC50 (BTK kinase): 50 to 100 nM

C=CC(=O)N1CCC[C@@H](Nc2nc(Nc3cc(C)no3)nc3ccsc23)C1 [Example 85]
IC50 (JAK3 kinase): 10 to 100 nM
IC50 (BTK kinase): 50 to 100 nM

C=CC(=O)N1CCC[C@@H](Nc2nc(Nc3cc(C)ns3)nn3cccc23)C1 [Example 134, (R)-1-(3-((2-((3-methyl-isothiazol-5-yl)amino)pyrrolo[2,1-f][1,2,4]triazin-4-yl)amino)piperidin-1-yl)prop-2-en-1-one]
IC50 (CTLL-2 cells): ≤ 100 nM
IC50 (JAK3 kinase): ≤ 10 nM
IC50 (BTK kinase): ≤ 50 nM

C=CC(=O)N1CCC[C@@H](Nc2nc(Nc3cnn(C)c3)nc3ccsc23)C1 [Example 80]
IC50 (JAK3 kinase): 10 to 100 nM
IC50 (BTK kinase): ≤ 50 nM

C=CC(=O)N1CC[C@@H](Nc2nc(Nc3cc(C)no3)nc3ccsc23)C1 [Example 79]
IC50 (JAK3 kinase): 10 to 100 nM
IC50 (BTK kinase): 100 to 1000 nM

C=CC(=O)N1CC[C@@H](Nc2nc(Nc3cnn(C(C)C)c3)nc3ccsc23)C1 [Example 119]
IC50 (JAK3 kinase): 10 to 100 nM
IC50 (BTK kinase): ≤ 50 nM

C=CC(=O)N1CC[C@@H](Nc2nc(Nc3cnn(C)c3)nc3ccsc23)C1 [Example 75]
IC50 (JAK3 kinase): 10 to 100 nM
IC50 (BTK kinase): ≤ 50 nM

C=CC(=O)N1CC(CNc2nc(Nc3cnn(C)c3)nc3ccsc23)C1 [Example 61, 1-(3-(((2-((1-methyl-1H-pyrazol-4-yl)amino)thieno[3,2-d]pyrimidin-4-yl)amino)methyl)azetidin-1-yl)prop-2-en-1-one]
IC50 (JAK3 kinase): ≤ 10 nM
IC50 (BTK kinase): ≤ 50 nM

C=CC(=O)N1CC(CNc2nc(Nc3cc(C(C)C)no3)nc3ccsc23)C1 [Example 70]
IC50 (JAK3 kinase): 10 to 100 nM
IC50 (BTK kinase): 50 to 100 nM

C=CC(=O)N1CC[C@@H](Nc2nc(Nc3cnn(C)c3)nn3cccc23)C1 [Example 138]
IC50 (JAK3 kinase): 10 to 100 nM
IC50 (BTK kinase): ≤ 50 nM

C=CC(=O)N1CC[C@@H](Nc2nc(Nc3cnn(C)c3)nc3sccc23)C1 [Example 101]
IC50 (JAK3 kinase): 100 to 1000 nM
IC50 (BTK kinase): 50 to 100 nM

C=CC(=O)N1CC[C@@H](Nc2nc(Nc3cnn(C4CCCC4)c3)nc3ccsc23)C1 [Example 121]
IC50 (JAK3 kinase): 10 to 100 nM
IC50 (BTK kinase): ≤ 50 nM

C=CC(=O)N1CCC[C@@H](Nc2nc(Nc3cc(C)ns3)nc3ccoc23)C1 [Example 96]
IC50 (JAK3 kinase): ≤ 10 nM
IC50 (BTK kinase): ≤ 50 nM

C=CC(=O)N1CC[C@@H](Nc2nc(Nc3cnn(C)c3)nc3ccoc23)C1 [Example 93]
IC50 (JAK3 kinase): 10 to 100 nM
IC50 (BTK kinase): ≤ 50 nM

C=CC(=O)N1CC[C@@H](Nc2nc(Nc3cc(C)ns3)nn3cccc23)C1 [Example 137]
IC50 (CTLL-2 cells): 100 to 1000 nM
IC50 (JAK3 kinase): ≤ 10 nM
IC50 (BTK kinase): ≤ 50 nM

C=CC(=O)N1CC(CNc2nc(Nc3cnn(COC)c3)nc3ccsc23)C1 [Example 114]
IC50 (JAK3 kinase): 10 to 100 nM
IC50 (BTK kinase): ≤ 50 nM

C=CC(=O)N1CC(CNc2nc(Nc3cnoc3)nc3ccsc23)C1 [Example 73]
IC50 (JAK3 kinase): 10 to 100 nM
IC50 (BTK kinase): ≤ 50 nM

C=CC(=O)N1CCC[C@@H](Nc2nc(Nc3cnn(CC)c3)nc3ccsc23)C1 [Example 127]
IC50 (JAK3 kinase): ≤ 10 nM
IC50 (BTK kinase): ≤ 50 nM

C=CC(=O)N1CCC[C@@H](Nc2nc(Nc3cc(C)ns3)nc3ccsc23)C1 [Example 82]
IC50 (JAK3 kinase): ≤ 10 nM
IC50 (BTK kinase): ≤ 50 nM

C=CC(=O)N1CC(CNc2nc(Nc3nccs3)nc3ccsc23)C1 [Example 74]
IC50 (JAK3 kinase): 100 to 1000 nM
IC50 (BTK kinase): 50 to 100 nM

C=CC(=O)N1CC(CNc2nc(Nc3cnn(C4CCC4)c3)nc3ccsc23)C1 [Example 111]
IC50 (JAK3 kinase): 10 to 100 nM
IC50 (BTK kinase): ≤ 50 nM

C=CC(=O)N1CC[C@@H](Nc2nc(Nc3cnn(C4CCOCC4)c3)nc3ccsc23)C1 [Example 125]
IC50 (JAK3 kinase): ≤ 10 nM
IC50 (BTK kinase): ≤ 50 nM

C=CC(=O)N1CCC[C@@H](Nc2nc(Nc3cnoc3)nc3ccsc23)C1 [Example 83]
IC50 (JAK3 kinase): ≤ 10 nM
IC50 (BTK kinase): ≤ 50 nM

C=CC(=O)N1CC[C@@H](Nc2nc(Nc3cn[nH]c3)nc3ccsc23)C1 [Example 77]
IC50 (JAK3 kinase): 10 to 100 nM
IC50 (BTK kinase): ≤ 50 nM

C=CC(=O)N1CCC[C@@H](Nc2nc(Nc3cn[nH]c3)nc3ccsc23)C1 [Example 81]
IC50 (JAK3 kinase): 10 to 100 nM
IC50 (BTK kinase): ≤ 50 nM
